Assay results as given in PubChem BioAssay AID2060490 (Molecular Pharmacology Branch, DTP, NCI, 2025).

Test system: 885512-296-R-J2-PDC complex spheroid viability
Test: Anticancer human tumor 885512-296-R-J2-PDC patient-derived breast carcinoma cell line growth inhibition [GQUAD]
Details: for IC50: curve of first compound; for viability, T/C: stronger effect = lower value; active = viability on the fitted dose curve at most 10% of control; inactive = the rest
Method in brief: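 Multi-cell-type spheroids of tumor cells with HUVEC and mesenchymal stem cells, treated with drug combinations. Concentrations descend in half-log steps from near clinical Cmax, or from 10 microM where Cmax is unknown; viability read-out.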

[1] = second compound 0.0316 µM, first compound 0.000999 µM
[2] = second compound 0.0316 µM, first compound 0.00316 µM
[3] = second compound 0.0316 µM, first compound 0.00999 µM
[4] = second compound 0.0316 µM, first compound 0.0316 µM
[5] = second compound 0.0316 µM, first compound 0.0999 µM
[6] = second compound 0.0316 µM, first compound 0.316 µM
[7] = second compound 0.1 µM, first compound 0.000999 µM
[8] = second compound 0.1 µM, first compound 0.00316 µM
[9] = second compound 0.1 µM, first compound 0.00999 µM
[10] = second compound 0.1 µM, first compound 0.0316 µM
[11] = second compound 0.1 µM, first compound 0.0999 µM
[12] = second compound 0.1 µM, first compound 0.316 µM
[13] = second compound 0.316 µM, first compound 0.000999 µM
[14] = second compound 0.316 µM, first compound 0.00316 µM
[15] = second compound 0.316 µM, first compound 0.00999 µM
[16] = second compound 0.316 µM, first compound 0.0316 µM
[17] = second compound 0.316 µM, first compound 0.0999 µM
[18] = second compound 0.316 µM, first compound 0.316 µM
[19] = second compound 1 µM, first compound 0.000999 µM
[20] = second compound 1 µM, first compound 0.00316 µM
[21] = second compound 1 µM, first compound 0.00999 µM
[22] = second compound 1 µM, first compound 0.0316 µM
[23] = second compound 1 µM, first compound 0.0999 µM
[24] = second compound 1 µM, first compound 0.316 µM
[25] = second compound 3.16 µM, first compound 0.000999 µM
[26] = second compound 3.16 µM, first compound 0.00316 µM
[27] = second compound 3.16 µM, first compound 0.00999 µM
[28] = second compound 3.16 µM, first compound 0.0316 µM
[29] = second compound 3.16 µM, first compound 0.0999 µM
[30] = second compound 3.16 µM, first compound 0.316 µM
[31] = second compound 10 µM, first compound 0.000999 µM
[32] = second compound 10 µM, first compound 0.00316 µM
[33] = second compound 10 µM, first compound 0.00999 µM
[34] = second compound 10 µM, first compound 0.0316 µM
[35] = second compound 10 µM, first compound 0.0999 µM
[36] = second compound 10 µM, first compound 0.316 µM
[37] = second compound 0.0316 µM, first compound 0.1 µM
[38] = second compound 0.0316 µM, first compound 1 µM
[39] = second compound 0.0316 µM, first compound 3.16 µM
[40] = second compound 0.0316 µM, first compound 10 µM
[41] = second compound 0.1 µM, first compound 0.1 µM
[42] = second compound 0.1 µM, first compound 1 µM
[43] = second compound 0.1 µM, first compound 3.16 µM
[44] = second compound 0.1 µM, first compound 10 µM
[45] = second compound 0.316 µM, first compound 0.1 µM
[46] = second compound 0.316 µM, first compound 1 µM
[47] = second compound 0.316 µM, first compound 3.16 µM
[48] = second compound 0.316 µM, first compound 10 µM
[49] = second compound 1 µM, first compound 0.1 µM
[50] = second compound 1 µM, first compound 1 µM
[51] = second compound 1 µM, first compound 3.16 µM
[52] = second compound 1 µM, first compound 10 µM
[53] = second compound 3.16 µM, first compound 0.1 µM
[54] = second compound 3.16 µM, first compound 1 µM
[55] = second compound 3.16 µM, first compound 3.16 µM
[56] = second compound 3.16 µM, first compound 10 µM
[57] = second compound 10 µM, first compound 0.1 µM
[58] = second compound 10 µM, first compound 1 µM
[59] = second compound 10 µM, first compound 3.16 µM
[60] = second compound 10 µM, first compound 10 µM
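Also: spheroids exposed to the compounds for one week.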
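For viability, T/C in this document: percent of tumor spheroid viability relative to DMSO vehicle control wells.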

CCc1c2c(nc3ccc(O)cc13)-c1cc3c(c(=O)n1C2)COC(=O)[C@]3(O)CC + Cc1[nH]c2ccc(F)cc2c1-c1nc2c3cccnc3c3ncccc3c2[nH]1
active: viability, T/C [3] 6.06% | viability, T/C [4] 3.24% | viability, T/C [5] 2.09% | viability, T/C [6] 1.42% | viability, T/C [9] 5.76% | viability, T/C [10] 2.48% | viability, T/C [11] 1.88% | viability, T/C [12] 1.48% | viability, T/C [14] 9.08% | viability, T/C [15] 4.66% | viability, T/C [16] 2.27% | viability, T/C [17] 1.56% | viability, T/C [18] 1.34% | viability, T/C [20] 8.76% | viability, T/C [21] 2.75% | viability, T/C [22] 1.69% | viability, T/C [23] 1.68% | viability, T/C [24] 1.43% | viability, T/C [25] 3.36% | viability, T/C [26] 2.2% | viability, T/C [27] 2.07% | viability, T/C [28] 1.56% | viability, T/C [29] 1.71% | viability, T/C [30] 2.07% | viability, T/C [31] 1.69% | viability, T/C [32] 1.34% | viability, T/C [33] 1.31% | viability, T/C [34] 1.08% | viability, T/C [35] 0.89% | viability, T/C [36] 1.57%
< 0.999 nM: IC50 (second compound 0.0316 µM) | IC50 (second compound 0.1 µM) | IC50 (second compound 0.316 µM) | IC50 (second compound 1 µM) | IC50 (second compound 3.16 µM) | IC50 (second compound 10 µM)
inactive: viability, T/C [1] 26.3% | viability, T/C [2] 9.48% | viability, T/C [7] 25.8% | viability, T/C [8] 9.37% | viability, T/C [13] 28.2% | viability, T/C [19] 26%

COc1cc(C2c3cc4c(cc3C(OC3OC5COC(C)OC5C(O)C3O)C3COC(=O)C23)OCO4)cc(OC)c1O (stereo not drawn) + Cc1[nH]c2ccc(F)cc2c1-c1nc2c3cccnc3c3ncccc3c2[nH]1
578 nM: IC50 (second compound 1 µM)
active: viability, T/C [40] 10.1% | viability, T/C [44] 10% | viability, T/C [52] 6.78% | viability, T/C [54] 7.13% | viability, T/C [55] 4.87% | viability, T/C [56] 2.93% | viability, T/C [34] 1.61% | viability, T/C [57] 3.08% | viability, T/C [36] 1.52% | viability, T/C [58] 1.53% | viability, T/C [59] 1.51% | viability, T/C [60] 1.37%
806 nM: IC50 (second compound 0.1 µM)
739 nM: IC50 (second compound 0.0316 µM)
inactive: viability, T/C [4] 96.3% | viability, T/C [37] 86.7% | viability, T/C [6] 77.3% | viability, T/C [38] 41% | viability, T/C [39] 13.6% | viability, T/C [10] 117% | viability, T/C [41] 91.5% | viability, T/C [12] 94.2% | viability, T/C [42] 39.9% | viability, T/C [43] 11.4% | viability, T/C [16] 91.8% | viability, T/C [45] 98.4% | viability, T/C [18] 82.1% | viability, T/C [46] 36.1% | viability, T/C [47] 16.5% | viability, T/C [48] 8.49% | viability, T/C [22] 70.5% | viability, T/C [49] 76% | viability, T/C [24] 62.3% | viability, T/C [50] 37.9% | viability, T/C [51] 13.7% | viability, T/C [28] 21.3% | viability, T/C [53] 13.6% | viability, T/C [30] 15.8%
715 nM: IC50 (second compound 0.316 µM)
< 31.6 nM: IC50 (second compound 3.16 µM) | IC50 (second compound 10 µM)

CC(=O)O[C@H]1C(=O)[C@@]2(C)[C@H]([C@H](OC(=O)c3ccccc3)[C@]3(O)C[C@H](OC(=O)[C@H](O)[C@@H](NC(=O)c4ccccc4)c4ccccc4)C(C)=C1C3(C)C)[C@]1(OC(C)=O)CO[C@@H]1C[C@@H]2O + Cc1cnc(CNC(=O)c2c(=O)c3ccc(N4CCCN(C)CC4)nc3n3c2sc2ccccc23)cn1
< 31.6 nM: IC50 (second compound 0.0316 µM) | IC50 (second compound 0.1 µM) | IC50 (second compound 0.316 µM) | IC50 (second compound 1 µM) | IC50 (second compound 3.16 µM) | IC50 (second compound 10 µM)
active: viability, T/C [37] 3.65% | viability, T/C [6] 3.53% | viability, T/C [38] 4.58% | viability, T/C [39] 3.52% | viability, T/C [40] 3.97% | viability, T/C [10] 7.92% | viability, T/C [41] 4.41% | viability, T/C [12] 6.02% | viability, T/C [42] 4.78% | viability, T/C [43] 4.71% | viability, T/C [44] 4.43% | viability, T/C [16] 7.35% | viability, T/C [45] 6.45% | viability, T/C [18] 5.89% | viability, T/C [46] 7.32% | viability, T/C [47] 6.29% | viability, T/C [48] 6.52% | viability, T/C [22] 7.81% | viability, T/C [49] 6.34% | viability, T/C [24] 5.06% | viability, T/C [50] 7.14% | viability, T/C [51] 6.19% | viability, T/C [52] 7.74% | viability, T/C [53] 0.54% | viability, T/C [30] 0.25% | viability, T/C [54] 0.47% | viability, T/C [55] 0.25% | viability, T/C [56] 0.18% | viability, T/C [34] 0.12% | viability, T/C [57] 0.14% | viability, T/C [36] 0.14% | viability, T/C [58] 0.12% | viability, T/C [59] 0.15% | viability, T/C [60] 0.16%
inactive: viability, T/C [4] 11.1% | viability, T/C [28] 12.7%

CCc1c2c(nc3ccc(O)cc13)-c1cc3c(c(=O)n1C2)COC(=O)[C@]3(O)CC + Cc1cnc(CNC(=O)c2c(=O)c3ccc(N4CCCN(C)CC4)nc3n3c2sc2ccccc23)cn1
active: viability, T/C [2] 8.3% | viability, T/C [3] 5.81% | viability, T/C [4] 3.27% | viability, T/C [5] 2% | viability, T/C [6] 1.37% | viability, T/C [9] 6.32% | viability, T/C [10] 4.29% | viability, T/C [11] 2.34% | viability, T/C [12] 1.47% | viability, T/C [15] 9.75% | viability, T/C [16] 4.25% | viability, T/C [17] 1.6% | viability, T/C [18] 1.03% | viability, T/C [21] 7.19% | viability, T/C [22] 1.29% | viability, T/C [23] 0.07% | viability, T/C [24] 0.1% | viability, T/C [27] 2.82% | viability, T/C [28] 0.24% | viability, T/C [29] 0.06% | viability, T/C [30] 0.1% | viability, T/C [31] 0.08% | viability, T/C [32] 0.14% | viability, T/C [33] 0.13% | viability, T/C [34] 0.1% | viability, T/C [35] 0.11% | viability, T/C [36] 0.13%
inactive: viability, T/C [1] 17.9% | viability, T/C [7] 17% | viability, T/C [8] 10.5% | viability, T/C [13] 16.3% | viability, T/C [14] 12.1% | viability, T/C [19] 16.7% | viability, T/C [20] 14.3% | viability, T/C [25] 26.4% | viability, T/C [26] 19.8%
< 0.999 nM: IC50 (second compound 0.0316 µM) | IC50 (second compound 0.1 µM) | IC50 (second compound 0.316 µM) | IC50 (second compound 1 µM) | IC50 (second compound 3.16 µM) | IC50 (second compound 10 µM)
